From the supplement of paper PMC10307832

Assays:
Assay in all cases: relative viability (nuclei count vs DMSO), 5 days (fraction); higher = more cells survive
201T = test system: 201T
Summary of the method: (§1)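 Lung cancer cell lines in 1536-well plates were dosed by pin tool the day after seeding, either with one drug alone or with a fixed anchor-drug dose plus five library-drug doses (not always all listed) in √10 steps. After 5 days, cells were fixed and their nuclei stained in one step (final 0.05% Triton X-100, 1% formaldehyde, 1 ug/ml Hoechst), then counted on 4× images. Relative viability is the nuclei count in treated wells divided by that in vehicle wells. Values are medians of duplicate plates.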

EPLC-272H = test system: EPLC-272H
Summary of the method: as §1

NCI-H23 = test system: NCI-H23
Summary of the method: as §1

NCI-H2347 = test system: NCI-H2347
Summary of the method: as §1

NCI-H661 = test system: NCI-H661
Summary of the method: as §1

ChaGo-K-1 = test system: ChaGo-K-1
Summary of the method: as §1

HCC-78 = test system: HCC-78
Summary of the method: as §1

NCI-H2087 = test system: NCI-H2087
Summary of the method: as §1

NCI-H1915 = test system: NCI-H1915
Summary of the method: as §1

NCI-H1666 = test system: NCI-H1666
Summary of the method: as §1

LCLC-97TM1 = test system: LCLC-97TM1
Summary of the method: as §1

HCC-827 = test system: HCC-827
Summary of the method: as §1

Q: For `Clc1ccc(Nc2nnc(Cc3ccncc3)c3ccccc23)cc1` [Vatalanib] + CC(=O)Nc1cccc(-n2c(=O)n(C3CC3)c(=O)c3c(Nc4ccc(I)cc4F)n(C)c(=O)c(C)c32)c1 [Trametinib] (partner 0.02 µM), which relative viability (201T; first compound 0.04 µM) is on record?
A: Its relative viability is 0.718.

Q: What about the relative viability (201T; first compound 0.1265 µM) of the same compound?
A: Its relative viability is 0.743.

Q: And the relative viability (201T; first compound 0.4 µM)?
A: The relative viability was 0.75.

Q: And the relative viability (201T; first compound 1.265 µM)?
A: Its relative viability is 0.731.

Q: What about the relative viability (201T; first compound 4 µM) of the same compound?
A: The relative viability was 0.735.

Q: And the relative viability (EPLC-272H; first compound 0.04 µM)?
A: The relative viability was 0.284.

Q: And the relative viability (EPLC-272H; first compound 0.1265 µM)?
A: The relative viability was 0.247.

Q: What about the relative viability (EPLC-272H; first compound 0.4 µM) of the same compound?
A: Its relative viability is 0.327.

Q: And the relative viability (EPLC-272H; first compound 1.265 µM)?
A: The relative viability was 0.264.

Q: And the relative viability (EPLC-272H; first compound 4 µM)?
A: The relative viability was 0.268.

Q: And the relative viability (NCI-H23; first compound 0.04 µM)?
A: The relative viability was 0.308.

Q: What about the relative viability (NCI-H23; first compound 0.1265 µM) of the same compound?
A: The relative viability was 0.296.

Q: And the relative viability (NCI-H23; first compound 0.4 µM)?
A: Its relative viability is 0.356.

Q: And the relative viability (NCI-H23; first compound 1.265 µM)?
A: Its relative viability is 0.363.

Q: And the relative viability (NCI-H23; first compound 4 µM)?
A: The relative viability was 0.419.

Q: And the relative viability (NCI-H2347; first compound 0.04 µM)?
A: The relative viability was 0.278.

Q: What about the relative viability (NCI-H2347; first compound 0.1265 µM) of the same compound?
A: The relative viability was 0.277.

Q: And the relative viability (NCI-H2347; first compound 0.4 µM)?
A: Its relative viability is 0.279.

Q: And the relative viability (NCI-H2347; first compound 1.265 µM)?
A: Its relative viability is 0.266.

Q: What about the relative viability (NCI-H2347; first compound 4 µM) of the same compound?
A: The relative viability was 0.309.

Q: What about the relative viability (NCI-H661; first compound 0.04 µM) of the same compound?
A: The relative viability was 0.636.

Q: What about the relative viability (NCI-H661; first compound 0.1265 µM) of the same compound?
A: The relative viability was 0.533.

Q: And the relative viability (NCI-H661; first compound 0.4 µM)?
A: Its relative viability is 0.689.

Q: What about the relative viability (NCI-H661; first compound 1.265 µM) of the same compound?
A: The relative viability was 0.59.

Q: And the relative viability (NCI-H661; first compound 4 µM)?
A: Its relative viability is 0.574.

Q: What about the relative viability (ChaGo-K-1; first compound 0.04 µM) of the same compound?
A: Its relative viability is 0.86.

Q: What about the relative viability (ChaGo-K-1; first compound 0.1265 µM) of the same compound?
A: Its relative viability is 0.823.

Q: And the relative viability (ChaGo-K-1; first compound 0.4 µM)?
A: The relative viability was 0.928.

Q: And the relative viability (ChaGo-K-1; first compound 1.265 µM)?
A: Its relative viability is 0.877.

Q: And the relative viability (ChaGo-K-1; first compound 4 µM)?
A: Its relative viability is 0.881.

Q: What about the relative viability (HCC-78; first compound 0.04 µM) of the same compound?
A: Its relative viability is 0.729.

Q: And the relative viability (HCC-78; first compound 0.1265 µM)?
A: The relative viability was 0.794.

Q: And the relative viability (HCC-78; first compound 0.4 µM)?
A: The relative viability was 0.809.

Q: And the relative viability (HCC-78; first compound 1.265 µM)?
A: The relative viability was 0.822.

Q: What about the relative viability (HCC-78; first compound 4 µM) of the same compound?
A: The relative viability was 0.694.

Q: And the relative viability (NCI-H2087; first compound 0.04 µM)?
A: Its relative viability is 0.245.

Q: And the relative viability (NCI-H2087; first compound 0.1265 µM)?
A: The relative viability was 0.197.

Q: And the relative viability (NCI-H2087; first compound 0.4 µM)?
A: Its relative viability is 0.249.

Q: What about the relative viability (NCI-H2087; first compound 1.265 µM) of the same compound?
A: Its relative viability is 0.194.

Q: And the relative viability (NCI-H2087; first compound 4 µM)?
A: Its relative viability is 0.179.

Q: What about the relative viability (NCI-H1915; first compound 0.04 µM) of the same compound?
A: The relative viability was 0.32.

Q: What about the relative viability (NCI-H1915; first compound 0.1265 µM) of the same compound?
A: Its relative viability is 0.34.

Q: And the relative viability (NCI-H1915; first compound 0.4 µM)?
A: The relative viability was 0.323.

Q: What about the relative viability (NCI-H1915; first compound 1.265 µM) of the same compound?
A: Its relative viability is 0.298.

Q: And the relative viability (NCI-H1915; first compound 4 µM)?
A: The relative viability was 0.295.

Q: What about the relative viability (NCI-H1666; first compound 0.04 µM) of the same compound?
A: The relative viability was 0.83.

Q: What about the relative viability (NCI-H1666; first compound 0.1265 µM) of the same compound?
A: Its relative viability is 0.886.

Q: What about the relative viability (NCI-H1666; first compound 0.4 µM) of the same compound?
A: The relative viability was 0.88.

Q: What about the relative viability (NCI-H1666; first compound 1.265 µM) of the same compound?
A: The relative viability was 0.912.

Q: And the relative viability (NCI-H1666; first compound 4 µM)?
A: Its relative viability is 0.782.

Q: What about the relative viability (LCLC-97TM1; first compound 0.04 µM) of the same compound?
A: The relative viability was 0.18.

Q: What about the relative viability (LCLC-97TM1; first compound 0.1265 µM) of the same compound?
A: The relative viability was 0.197.

Q: What about the relative viability (LCLC-97TM1; first compound 0.4 µM) of the same compound?
A: The relative viability was 0.198.

Q: And the relative viability (LCLC-97TM1; first compound 1.265 µM)?
A: The relative viability was 0.195.

Q: What about the relative viability (LCLC-97TM1; first compound 4 µM) of the same compound?
A: The relative viability was 0.184.

Q: And the relative viability (HCC-827; first compound 0.04 µM)?
A: Its relative viability is 0.519.

Q: What about the relative viability (HCC-827; first compound 0.1265 µM) of the same compound?
A: The relative viability was 0.578.

Q: And the relative viability (HCC-827; first compound 1.265 µM)?
A: The relative viability was 0.52.

Q: And the relative viability (HCC-827; first compound 4 µM)?
A: The relative viability was 0.522.
